# Laboratory results as given in ChEMBL document CHEMBL1147201, “Structural requirements of HDAC inhibitors: SAHA analogs functionalized adjacent to the hydroxamic acid” (Bioorg Med Chem Lett, 2007).
# Target: Histone deacetylase
# Test: Inhibition of HDAC by fluorescent assay
# Type: protein assay, Homo sapiens
row,IC50,Structure (SMILES)
1,154 µM,CCCC(CCCCCC(=O)Nc1ccccc1)C(=O)NO (configuration not stated)
2,72 µM,CCCCC(CCCCCC(=O)Nc1ccccc1)C(=O)NO (configuration not stated)
3,87 µM,C#CCC(CCCCCC(=O)Nc1ccccc1)C(=O)NO (configuration not stated)
4,449 µM,CCC(CCCCCC(=O)Nc1ccccc1)C(=O)NO (configuration not stated)
5,134 µM,CC(CCCCCC(=O)Nc1ccccc1)C(=O)NO (configuration not stated)
6,226 µM,O=C(CCCCCC(Cc1ccccc1)C(=O)NO)Nc1ccccc1 (configuration not stated)
7,144 µM,C=CCC(CCCCCC(=O)Nc1ccccc1)C(=O)NO (configuration not stated)
